Reference: publication PMC7582770, “Synthesis of “All-Cis” Trihydroxypiperidines from a Carbohydrate-Derived Ketone: Hints for the Design of New β-Gal and GCase Inhibitors” (Molecules, 2020)
Where a chain is given by its changes, count along the chain named. Where two headings read alike, the source gives them in different places. Marks after values point to notes of the source that are not given here. Blank lines part the entries; values can stand above or below the compound they belong to.

Columns and labels:
[1] = test system: mutant β-Gal in GM1-gangliosidosis patient fibroblasts; conditions: cited from earlier work
human lysosomal β-Gal = conditions: cited from earlier work
[2] = target: T1, human lysosomal β-galactosidase (β-Gal) (Homo sapiens, UniProt P16278); test: β-Gal inhibition in human leukocyte homogenates; assay type: biochemical; conditions: compounds 1 mM; human leukocytes extracts
T1 construct: in leukocytes isolated from healthy donors (controls); endogenous in cells; host or cells: human leukocytes from healthy donors, disrupted by sonication (crude homogenate)
T1 sequence (P16278 29-677): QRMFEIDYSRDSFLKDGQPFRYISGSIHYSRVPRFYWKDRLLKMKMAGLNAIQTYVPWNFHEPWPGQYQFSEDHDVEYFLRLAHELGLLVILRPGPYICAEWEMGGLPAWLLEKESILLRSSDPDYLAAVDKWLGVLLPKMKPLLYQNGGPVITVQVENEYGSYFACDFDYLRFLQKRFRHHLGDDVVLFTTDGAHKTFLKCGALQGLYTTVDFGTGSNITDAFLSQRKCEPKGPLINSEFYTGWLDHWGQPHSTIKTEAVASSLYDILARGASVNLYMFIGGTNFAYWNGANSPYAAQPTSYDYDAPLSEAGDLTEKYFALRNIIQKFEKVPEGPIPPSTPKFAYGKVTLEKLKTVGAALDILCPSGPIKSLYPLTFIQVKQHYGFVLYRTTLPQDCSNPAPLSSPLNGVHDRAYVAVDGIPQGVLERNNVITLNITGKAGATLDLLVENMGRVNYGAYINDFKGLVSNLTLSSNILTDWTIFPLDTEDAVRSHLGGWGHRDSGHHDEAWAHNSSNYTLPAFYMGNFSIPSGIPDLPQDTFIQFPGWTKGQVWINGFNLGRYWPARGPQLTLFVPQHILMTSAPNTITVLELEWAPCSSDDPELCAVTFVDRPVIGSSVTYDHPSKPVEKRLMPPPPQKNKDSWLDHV
Description: (§1) The new compounds were screened at 1 mM concentration towards β-galactosidase (β-Gal) and β-glucosidase (GCase) in leukocytes isolated from healthy donors (controls). Isolated leukocytes were disrupted by sonication, and a Micro BCA Protein Assay Kit (Sigma–Aldrich, St. Louis, MO, USA) was used to determine the total protein amount for the enzymatic assay, according to the manufacturer’s instructions.
β-Gal activity was measured in a flat-bottomed 96-well plate. Azasugar solution (3 μL), 4.29 μg/μL leukocytes homogenate 1:10 (7 μL), and substrate 4-methylumbelliferyl β-D-galactopyranoside (1.47 mM, 20 μL, Sigma–Aldrich) in acetate buffer (0.1 M, pH 4.3) containing NaCl (0.1 M) and sodium azide (0.02%) were incubated at 37 °C for 1 h. The reaction was stopped by addition of sodium carbonate (200 μL; 0.5 M, pH 10.7) containing Triton X-100 (0.0025%), and the fluorescence 4-methylumbelliferone released by β-galactosidase activity was measured in SpectraMax M2 Microplate Reader (λex = 365 nm and λem = 435 nm; Molecular Devices LLC, San Jose, CA, US). Inhibition is given with respect to the control (without azasugar). Data are mean SD (n = 3).

[3] = target: T2, human lysosomal β-glucosidase (GCase) (Homo sapiens, UniProt P04062); test: GCase inhibition in human leukocyte homogenates; assay type: biochemical; conditions: compounds 1 mM; human leukocytes extracts
T2 construct: in leukocytes isolated from healthy donors (controls); endogenous in cells; host or cells: human leukocytes from healthy donors, disrupted by sonication (crude homogenate)
T2 sequence (P04062 40-536): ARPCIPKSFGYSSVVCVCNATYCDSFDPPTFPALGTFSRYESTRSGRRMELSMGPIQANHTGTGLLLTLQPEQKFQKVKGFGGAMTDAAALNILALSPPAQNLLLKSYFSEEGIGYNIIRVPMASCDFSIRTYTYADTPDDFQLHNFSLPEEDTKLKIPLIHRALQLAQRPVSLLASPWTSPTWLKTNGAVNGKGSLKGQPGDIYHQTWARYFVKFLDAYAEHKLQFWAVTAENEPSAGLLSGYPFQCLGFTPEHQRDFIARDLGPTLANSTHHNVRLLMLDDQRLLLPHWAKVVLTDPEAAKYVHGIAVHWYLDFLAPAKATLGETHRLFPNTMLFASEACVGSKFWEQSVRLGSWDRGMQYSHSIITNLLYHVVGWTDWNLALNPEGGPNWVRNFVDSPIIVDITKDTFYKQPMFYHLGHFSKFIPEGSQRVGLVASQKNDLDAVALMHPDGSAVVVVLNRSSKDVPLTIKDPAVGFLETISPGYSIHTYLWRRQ
Description: as §1
GCase activity was measured in a flat-bottomed 96-well plate. Compound solution (3 µL), 4.29 µg/µL leukocytes homogenate (7 µL), and substrate 4-methylumbelliferyl-β-D-glucoside (3.33 mM, 20 µL, Sigma–Aldrich Chemie Gmbh, Munich, Germany)) in citrate/phosphate buffer (0.1:0.2, M/M, pH 5.8) containing sodium taurocholate (0.3%) and Triton X-100 (0.15%) at 37 °C were incubated for 1 h. The reaction was stopped by addition of sodium carbonate (200 µL; 0.5 M, pH 10.7) containing Triton X-100 (0.0025%), and the fluorescence of 4-methylumbelliferone released by β-glucosidase activity was measured in SpectraMax M2 Microplate Reader (λex = 365 nm and λem = 435 nm; Molecular Devices LLC, San Jose, CA, US). Percentage GCase inhibition is given with respect to the control (without compound). Data are mean SD (n = 3). For compounds showing GCase inhibitory activity higher than 80% at 1 mM concentration, the IC50 values were determined by measuring the initial hydrolysis rate with 4-methylumbelliferyl-β-D-glucoside (3.33 mM). Data obtained were fitted by using the appropriate equation (for more details, see the Supplementary Materials).
IC50 for compounds 9, 10, 12 and 21 towards human lysosomal β-glucosidase The IC50 values of inhibitors against β-glucosidase were determined by measuring the initial hydrolysis rate with 4-methylumbelliferyl-β-D-glucoside (3.33 mM). Data obtained were fitted to the following equation using the Origin Microcal program. where Vi/Vo, represent the ratio between the activity measured in the presence of the inhibitor (Vi) and the activity of the control without the inhibitor (V0), “x” the inhibitor concentration, Max and Min, the maximal and minimal enzymatic activity observed, respectively.
Figure S48: IC of compound 9 towards GCase
Figure S49: IC50 of compound 10 towards GCase
(also on this page, place not known: Min x MinMax Vo Vi slope + […] […] […] […] […] […]+ −= 1 be tween (V i) (V 0), IC50) […]

[4] = target: T2, human lysosomal β-glucosidase (GCase); conditions: human leukocytes extracts, cited from earlier work; for GCase Inhibition (%): compounds 1 mM
[5] = target: T3, GCase in fibroblasts with the N370S/RecNcil mutation (Homo sapiens, UniProt P04062, N409S); parameters: method as in PMID 26376302; conditions: at 100 µM; cited from earlier work
T3 construct: Fibroblasts with the N370S/RecNcil mutation from patients with Gaucher disease; host or cells: human Gaucher patient fibroblasts, N370S/RecNciI
T3 sequence (P04062 40-536 N409S): T2 sequence (P04062 40-536) with N370S

[6] = target: T1, human lysosomal β-galactosidase (β-Gal); parameters: method as in PMID 32200326; conditions: compounds 1 mM; human leukocytes extracts; cited from earlier work

Compound: CCCCCCCCCN1C[C@H](O)[C@@H](O)[C@@H](O)[C@H]1CO [compound 2, N-nonyl-DGJ]
- rescue of intracellular activity of mutant β-Gal in GM1-gangliosidosis patient fibroblasts [1]: able to rescue the intracellular activity of mutant β-Gal

Compound: OC[C@H]1CNC[C@@H](O)[C@H]1O [compound 3, 4-epi-isofagomine]
- IC50 (human lysosomal β-Gal): 1 µM

Compound: CCCCC[C@H]1NC[C@@H](O)[C@@H](O)[C@H]1CO [compound 4]
- IC50 (human lysosomal β-Gal): 0.01 µM
- rescue of mutant β-Gal activity in fibroblasts from GM1-gangliosidosis patients [1]: able to rescue mutant β-Gal activity

Compound: CCCCCCCCC[C@H]1NC[C@@H](O)[C@@H](O)[C@H]1CO [compound 5]
- IC50 (human lysosomal β-Gal): 0.0004 µM
- rescue of mutant β-Gal activity in fibroblasts from GM1-gangliosidosis patients [1]: able to rescue mutant β-Gal activity

Compound: O[C@@H]1[C@H](O)[C@H](O)CN[C@H]1C[C@H](O)c1ccccc1 [compound 6]
- increase of β-Gal activity in GM1 gangliosidosis patient fibroblasts [1]: 2–6 fold

Compound: CCCCCCCC[C@@H](O)C[C@@H]1NC[C@@H](O)[C@@H](O)[C@H]1O [compound 7]
- increase of β-Gal activity in GM1 gangliosidosis patient fibroblasts [1]: 2–6 fold

- inhibition at 1000 µM [2]: 0%
- inhibition at 1000 µM [3]: 36%
Compound: O[C@@H]1CNC[C@@](O)(CCc2ccccc2)[C@@H]1O [compound 11, (3S, 4R, 5R)-3,4,5-Trihydroxy-3-(2-Phenylethyl)-Piperidine]

- inhibition at 1000 µM [2]: 3%
- inhibition at 1000 µM [3]: 30%
Compound: CC[C@]1(O)CNC[C@@H](O)[C@H]1O [compound 13, (3S, 4R, 5R)-3-Ethyl-3,4,5-Trihydroxypiperidine]

- melting point: 73 to 75 °C
- inhibition at 1000 µM [2]: 16%
- inhibition at 1000 µM [3]: 9%
Compound: O[C@@H]1CNC[C@@](O)(CCc2ccsc2)[C@@H]1O [compound 14, (3S, 4R, 5R)-3,4,5-Trihydroxy-3-((2-(3-Thienyl) Ethyl))-Piperidine]

- inhibition at 1000 µM [2]: 6%
- inhibition at 1000 µM [3]: 6%
Compound: CN(C)c1ccc(CC[C@]2(O)CNC[C@@H](O)[C@H]2O)cc1 [compound 15]

- β-Gal Inhibition (%) [2]: 16%
- inhibition at 1000 µM [3]: 25%
Compound: O[C@@H]1CNC[C@@](O)(C#Cc2ccccc2)[C@@H]1O [compound 32, (3S, 4R, 5R)-3,4,5-Trihydroxy-3-(Phenylethynyl)-Piperidine]

- inhibition at 1000 µM [2]: 4%
- inhibition at 1000 µM [3]: 65%
Compound: CCCCCCC#C[C@]1(O)CNC[C@@H](O)[C@H]1O [compound 33, (3S, 4R, 5R)-3,4,5-Trihydroxy-3-(oct-1-yn-1-yl)-Piperidine]

Compound: CCCCCCCCN[C@H]1CNC[C@@H](O)[C@H]1O [compound 36]
- inhibition at 1000 µM [2]: 15%
- GCase Inhibition (%) [4]: 93 ^c %
- IC50 [4]: 40 ± 3 µM
- rescue of GCase activity [5]: 1.5 fold

Compound: CCCCCCCC[C@H]1NC[C@@H](O)[C@@H](O)[C@@H]1O [compound 37]
- GCase Inhibition (%) [4]: 100 ^d %
- IC50 [4]: 29 ± 2 µM
- β-Gal Inhibition (%) [6]: 14 ^d %

Compound: CCCCCCCCCCCC[C@H]1NC[C@@H](O)[C@@H](O)[C@@H]1O [compound 38]
- GCase Inhibition (%) [4]: 100 ^d %
- IC50 [4]: 1.5 ± 0.1 µM
- β-Gal Inhibition (%) [6]: 5 ^d %

Compound: CCCCCCCC[C@@H]1NC[C@@H](O)[C@@H](O)[C@@H]1O [compound 39]
- GCase Inhibition (%) [4]: 80 ^d %
- IC50 [4]: 94 ± 5 µM
- β-Gal Inhibition (%) [6]: 31 ^d %
